What was measured:
[1] = test system: VEEV TC83; assay: microbe, parasite or virus in culture; format: cell-based; details: Venezuelan equine encephalitis virus, Vero 76, 48 h, read-out: VEEV TC83 EC50 nM
[2] = test system: WEEV California; assay: microbe, parasite or virus in culture; format: cell-based; details: Western equine encephalitis virus, Vero 76, 48 h, read-out: WEEV California EC50 nM

Compound | EC50 [1] [nM] | EC50 [2] [nM]
COc1ccc(-n2c(-c3ncco3)nc3c(-c4ccc(C)nc4)cc(C#N)cc3c2=O)cc1F [Example 202, 3-(3-fluoro-4-methoxyphenyl)-8-(6-methylpyridin-3-yl)-2-(oxazol-2-yl)-4-oxo-3,4-dihydroquinazoline-6-carbonitrile] | > 1000 | > 1000
COc1c(F)cc(-n2c(C3CCCN3)nc3c(-c4ccc(C#CCO)cc4)cc(C#N)cc3c2=O)cc1F (stereo not drawn) [Example 169, 3-(3,5-difluoro-4-methoxyphenyl)-8-(4-(3-hydroxyprop-1-yn-1-yl)phenyl)-4-oxo-2-(pyrrolidin-2-yl)-3,4-dihydroquinazoline-6-carbonitrile] | 51 to 150 | 51 to 150
COc1ccc(-n2c(-c3cn(C)cn3)nc3c(-c4ccc(C)nc4)cc(C#N)cc3c2=O)cc1F [Example 200, 3-(3-fluoro-4-methoxyphenyl)-2-(1-methyl-1H-imidazol-4-yl)-8-(6-methylpyridin-3-yl)-4-oxo-3,4-dihydroquinazoline-6-carbonitrile] | > 1000 | > 1000
COc1ccc(-n2c([C@H]3CCCN3)nc3c(-c4ccc(F)nc4)cc(C#N)cc3c2=O)cc1F [Example 99, (R)-3-(3-fluoro-4-methoxyphenyl)-8-(6-fluoropyridin-3-yl)-4-oxo-2-(pyrrolidin-2-yl)-3,4-dihydroquinazoline-6-carbonitrile] | 1 to 50 | 1 to 50
COc1ccc(-n2c([C@H]3CCNC3)nc3c(C)cc([N+](=O)[O-])cc3c2=O)cc1F [Example 65, (S)-3-(3-fluoro-4-methoxyphenyl)-8-methyl-6-nitro-2-(pyrrolidin-3-yl) quinazolin-4 (3H)-one] | 51 to 150 | 51 to 150
[N-]=[N+]=Nc1cccc(-n2c([C@H]3CCCN3)nc3ccc([N+](=O)[O-])cc3c2=O)c1 [Example 17, (R)-3-(3-azidophenyl)-6-nitro-2-(pyrrolidin-2-yl) quinazolin-4 (3H)-one] | 151 to 500 | > 1000
O=c1c2cc([N+](=O)[O-])ccc2nc([C@@H]2CCCN2)n1-c1ccc(OC(F)(F)F)cc1 [Example 46, (S)-6-nitro-2-(pyrrolidin-2-yl)-3-(4-(trifluoromethoxy)phenyl)quinazolin-4 (3H)-one] | > 1000 | > 1000
COc1c(F)cc(-n2c([C@H]3CCCN3)nc3c(-c4ccc(C)nc4)cc(C#N)cc3c2=O)cc1F [Example 119, (R)-3-(3,5-difluoro-4-methoxyphenyl)-8-(6-methylpyridin-3-yl)-4-oxo-2-(pyrrolidin-2-yl)-3,4-dihydroquinazoline-6-carbonitrile] | 1 to 50 | 1 to 50
COc1ccc(-n2c([C@H]3CCCCN3)nc3ccc([N+](=O)[O-])cc3c2=O)cc1 [Example 33, (R)-3-(4-methoxyphenyl)-6-nitro-2-(piperidin-2-yl)quinazolin-4 (3H)-one] | 151 to 500 | 151 to 500
COc1ccc(-n2c(C3CCCN3)nc3c(N4CCC(N5CCOCC5)CC4)cc(C#N)cc3c2=O)cc1F (stereo not drawn) [Example 114, 3-(3-fluoro-4-methoxyphenyl)-8-(4-morpholinopiperidine-1-yl)-4-oxo-2-(pyrrolidin-2-yl)-3,4-dihydroquinazoline-6-carbonitrile] | 1 to 50 | 51 to 150
COc1ccc(-n2c(C3CCCN3)nc3c(-c4ccc(N5CCOCC5)nc4)cc(C#N)cc3c2=O)cc1F (stereo not drawn) [Example 124, 3-(3-fluoro-4-methoxyphenyl)-8-(6-morpholinopyridin-3-yl)-4-oxo-2-(pyrrolidin-2-yl)-3,4-dihydroquinazoline-6-carbonitrile] | 1 to 50 | 1 to 50
COc1ccc(-n2c(C3CCCN3)nc3c(-c4ccc(CO)cc4)cc(C#N)cc3c2=O)cc1F (stereo not drawn) [Example 134, 3-(3-fluoro-4-methoxyphenyl)-8-(4-(hydroxymethyl)phenyl)-4-oxo-2-(pyrrolidin-2-yl)-3,4-dihydroquinazoline-6-carbonitrile] | 1 to 50 | 1 to 50
COc1ccc(-n2c([C@@H]3CCCN3C)nc3c(C)cc([N+](=O)[O-])cc3c2=O)cc1F [Example 70, (S)-3-(3-fluoro-4-methoxyphenyl)-8-methyl-2-(1-methylpyrrolidin-2-yl)-6-nitroquinazolin-4 (3H)-one] | 1 to 50 | 1 to 50
COc1ccc(-n2c([C@H]3CCCN3)nc3c(-c4cncc(F)c4)cc(C#N)cc3c2=O)cc1F [Example 106, (R)-3-(3-fluoro-4-methoxyphenyl)-8-(5-fluoropyridin-3-yl)-4-oxo-2-(pyrrolidin-2-yl)-3,4-dihydroquinazoline-6-carbonitrile] | 1 to 50 | 1 to 50
O=c1c2cc([N+](=O)[O-])ccc2nc(C2CCCN2)n1-c1ccccc1Cl (stereo not drawn) [Example 38, 3-(2-chlorophenyl)-6-nitro-2-(pyrrolidin-2-yl) quinazolin-4 (3H)-one] | > 1000 | > 1000
COc1ccc(-n2c([C@@H]3CCCN3)nc3c(F)cc(C#N)cc3c2=O)cc1 [Example 79, (S)-8-fluoro-3-(4-methoxyphenyl)-4-oxo-2-(pyrrolidin-2-yl)-3,4-dihydroquinazoline-6-carbonitrile] | 501 to 1000 | 501 to 1000
COc1c(F)cc(-n2c(C3CCNC3)nc3c(-c4ccc(C)nc4)cc(C#N)cc3c2=O)cc1F (stereo not drawn) [Example 188, 3-(3,5-difluoro-4-methoxyphenyl)-8-(6-methylpyridin-3-yl)-4-oxo-2-(pyrrolidin-3-yl)-3,4-dihydroquinazoline-6-carbonitrile] | 1 to 50 | 1 to 50
COc1ccc(-n2c([C@@H]3CCNC3)nc3c(C)cc([N+](=O)[O-])cc3c2=O)cc1F [Example 67, (R)-3-(3-fluoro-4-methoxyphenyl)-8-methyl-6-nitro-2-(pyrrolidin-3-yl) quinazolin-4 (3H)-one] | 151 to 500 | 151 to 500
COc1ccc(-n2c([C@H]3CCCN3)nc3c(-c4cccnc4)cc([N+](=O)[O-])cc3c2=O)cc1F [Example 81, (R)-3-(3-fluoro-4-methoxyphenyl)-6-nitro-8-(pyridin-3-yl)-2-(pyrrolidin-2-yl) quinazolin-4 (3H)-one] | 1 to 50 | 1 to 50
COc1ccc(-n2c([C@H]3CCCN3)nc3ccc([N+](=O)[O-])cc3c2=O)c(F)c1 [Example 25, (R)-3-(2-fluoro-4-methoxyphenyl)-6-nitro-2-(pyrrolidin-2-yl) quinazolin-4 (3H)-one] | 51 to 150 | 151 to 500
COc1ccc(-n2c(C3CCCN3)nc3c(-c4ccc(C(C)=O)nc4)cc(C#N)cc3c2=O)cc1F (stereo not drawn) [Example 129, 8-(6-acetylpyridin-3-yl)-3-(3-fluoro-4-methoxyphenyl)-4-oxo-2-(pyrrolidin-2-yl)-3,4-dihydroquinazoline-6-carbonitrile] | 1 to 50 | 1 to 50
COc1ccc(-n2c([C@@H]3C[C@@H]4CCCC[C@@H]4N3)nc3c(-c4ccc(C)nc4)cc(C#N)cc3c2=O)cc1F [Example 139, 3-(3-fluoro-4-methoxyphenyl)-8-(6-methylpyridin-3-yl)-2-((2S,3aS,7aS)-octahydro-1H-indol-2-yl)-4-oxo-3,4-dihydroquinazoline-6-carbonitrile] | 1 to 50 | 51 to 150
COc1cccc(-c2cc(C#N)cc3c(=O)n(-c4ccc(OC)c(F)c4)c(C4CCCN4)nc23)c1 (stereo not drawn) [Example 148, 3-(3-Fluoro-4-methoxyphenyl)-8-(3-methoxyphenyl)-4-oxo-2-(pyrrolidin-2-yl)-3,4-dihydroquinazoline-6-carbonitrile] | 1 to 50 | 1 to 50
COc1ccc(-n2c([C@H]3CCCN3C)nc3c(C)cc([N+](=O)[O-])cc3c2=O)cc1F [Example 71, (R)-3-(3-fluoro-4-methoxyphenyl)-8-methyl-2-(1-methylpyrrolidin-2-yl)-6-nitroquinazolin-4 (3H)-one] | 51 to 150 | 51 to 150
COc1c(F)cc(-n2c(C3CCCN3)nc3c(C#CC(C)(C)O)cc(C#N)cc3c2=O)cc1F (stereo not drawn) [Example 193, 3-(3,5-Difluoro-4-methoxyphenyl)-8-(3-hydroxy-3-methylbut-1-yn-1-yl)-4-oxo-2-(pyrrolidin-2-yl)-3,4-dihydroquinazoline-6-carbonitrile] | 51 to 150 | 51 to 150
COc1ccc(-n2c(C3CCCN3Cc3ccc(F)cc3)nc3c(C)cc([N+](=O)[O-])cc3c2=O)cc1F (stereo not drawn) [Example 204, 3-(3-fluoro-4-methoxyphenyl)-2-(1-(4-fluorobenzyl)pyrrolidin-2-yl)-8-methyl-6-nitroquinazolin-4 (3H)-one] | 51 to 150 | 151 to 500
Cc1ccc(-c2cc(C#N)cc3c(=O)n(-c4ccc(N(C)C)c(F)c4)c(C4CCCN4)nc23)cn1 (stereo not drawn) [Example 145, 3-(4-(Dimethylamino)-3-fluorophenyl)-8-(6-methylpyridin-3-yl)-4-oxo-2-(pyrrolidin-2-yl)-3,4-dihydroquinazoline-6-carbonitrile] | 1 to 50 | 151 to 500
COc1ccc(-n2c(C3CCCN3)nc3c(-c4ccnc(C)c4)cc(C#N)cc3c2=O)cc1F (stereo not drawn) [Example 138, 3-(3-fluoro-4-methoxyphenyl)-8-(2-methylpyridin-4-yl)-4-oxo-2-(pyrrolidin-2-yl)-3,4-dihydroquinazoline-6-carbonitrile] | 1 to 50 | 1 to 50
COc1c(F)cc(-n2c(C34CC(CN3)C4)nc3c(-c4ccc(C)nc4)cc(C#N)cc3c2=O)cc1F [Example 175, 2-(2-azabicyclo[2.1.1]hexan-1-yl)-3-(3,5-difluoro-4-methoxyphenyl)-8-(6-methylpyridin-3-yl)-4-oxo-3,4-dihydroquinazoline-6-carbonitrile] | 1 to 50 | 51 to 150
Cc1ccc(-n2c([C@H]3CCCN3)nc3ccc([N+](=O)[O-])cc3c2=O)cc1 [Example 37, (R)-6-nitro-2-(pyrrolidin-2-yl)-3-(p-tolyl)quinazolin-4 (3H)-one] | 1 to 50 | 501 to 1000

Source: patent publication US20220348558A1, “INHIBITORS OF ENCEPHALITIC ALPHAVIRUSES” (priority 2019, published 2022)
